We go through 1 compound from patent US20080227688A1, “Inhibition of viral replication” (priority 2007, published 2008).

The subject of this assay is reovirus. In kind it is cell-based, Dearing strain of reovirus serotype 3.

As for `C[C@H](NC(=O)[C@H](Cc1ccccc1)NC(=O)OCc1ccccc1)C(=O)CF` [Z-FA-FMK, N-benzyloxycarbonyl-Phe-Ala-fluoromethylketone], the “cure of persistent reovirus infection (western blot, reovirus antiserum)” value was “cured persistently infected cells”.
